US20120202288A1, “COMPOSITIONS COMPRISING CYCLIC AMP ENHANCERS AND/OR EP LIGANDS, AND METHODS OF PREPARING AND USING THE SAME” (FATE THERAPEUTICS, INC., priority 2009, published 2012)
Read-outs that look alike come from different tables or passages of the source. Values belong to the compound of their own block, whether it stands above or below them.

Columns and labels:
[1] = Stability of 16,16-dimethyl PGE2 formulation, storage at −80° C.; assay type: physicochemical; settings: for Assay (% LC): 10 mM in DMSO, 2 ml glass vial; for Purity (%): stability
Procedure: (§1) 16,16-dimethyl PGE2 and its related substances were separated on a Phenomenex, Synergi Hydro RP 4μ HPLC column with gradient elution conditions and detected at 205 nm. The assay of 16,16-dimethyl PGE2 was determined by comparing the 16,16-dimethyl PGE2 peak area of the test samples with that of a reference standard of known concentration and purity. The levels of the impurities and degradation products were determined from the peak area ratio of each individual impurity to the total peak area of the 16,16-dimethyl PGE2 and all impurities and degradation products. The identify of 16,16-dimethyl PGE2 was confirmed by comparing the retention time of the main peak of the test sample against that in the reference standard.
(§2) Stability tests were performed on formulations of 16,16-dimethyl PGE2 stored at either −80° C. or −20° C. for up to six months. These clinical formulations were composed of 10 mM 16,16-dimethyl PGE2 in […] DMSO, and were stored in a 2 ml Type I clear glass vial with a 13 mm West 4432/50 Teflon coated stopper. The results are shown in Tables 3 (−80° C.) and 4 (−20° C.) below.

[2] = Stability of 16,16-dimethyl PGE2 formulation, storage at −20° C.; assay type: physicochemical; settings: for Assay (% LC): 10 mM in DMSO, 2 ml glass vial; for Purity (%): stability
Procedure: as §1, §2

[3] = system: hematopoietic stem cells (HSCs); test: Ex vivo treatment of HSCs prior to transplant, engraftment of donor HSCs; assay type: in vivo; settings: bone marrow cells incubated with 10 μM at 4° C. for one hour, then transplanted into allogeneic subject
Procedure: Bone marrow cells containing HSCs are obtained directly by removal from the hip of a donor subject using a needle and syringe. The heterogeneous mixture of bone marrow cells is transferred to two separate tissue culture flasks, and a suitable growth medium is provided.
262 μl of a 10 mM solution of 16,16-dimethyl PGE2 in DMSO is added to the cells in the first tissue culture flask, to a final working concentration of 10 μM of 16,16-dimethyl PGE2. The same amount of DMSO without agent is added to the second flask as a control, and the cells in both flasks are incubated at 4° C. (e.g., in an ice bath) for one hour. The 16,16-dimethyl PGE2 is at least 90% pure as measured by HPLC, and is produced by good manufacturing practice (GMP).
After incubation of the HSCs in the ice bath, the cells from each flask are administered to separate, but otherwise genetically identical subjects. These subjects are both allogeneic to the donor cells. The subjects are then observed for engraftment of the donor HSCs, using markers that are specific for the donor cells.

[4] = system: human umbilical cord-derived CD34+ cells; settings: apoptosis induced by nitric oxide (NO) or serum deprivation; cited from earlier work
transplanted stem cells = settings: injection shortly after marrow cell graft; cited from earlier work
[5] = cited from earlier work
hepatic stellate cells = settings: cited from earlier work
dendritic cell (DC) = settings: ex vivo or in vitro; withdrawal of growth factors or ceramide; cited from earlier work
[6] = system: murine embryonic stem cell; settings: cited from earlier work

Assay (% LC) ([1]; 1 Month): 98.5 % LC | Assay (% LC) ([1]; 2 Months): 97.7 % LC | Assay (% LC) ([1]; 3 Months): 98.5 % LC | Assay (% LC) ([1]; 6 Months): 98.6 % LC | Assay (% LC) ([1]; Time Zero): 98.1 % LC | Product Appearance ([1]; 1 Month): conforms | Total Related Substances (%) ([1]; 1 Month): 5.33% | pH ([1]; 1 Month): 4.8 | Product Appearance ([1]; 2 Months): conforms | Total Related Substances (%) ([1]; 2 Months): 5.51% | pH ([1]; 2 Months): 4.7 | Product Appearance ([1]; 3 Months): conforms | Total Related Substances (%) ([1]; 3 Months): 5.35% | pH ([1]; 3 Months): 4.8 | Product Appearance ([1]; 6 Months): conforms | Total Related Substances (%) ([1]; 6 Months): 5.51% | pH ([1]; 6 Months): 4.7 | Product Appearance ([1]; Time Zero): conforms | Total Related Substances (%) ([1]; Time Zero): 5.52% | pH ([1]; Time Zero): 4.5 | Purity (%) ([1]; 1 Month): 94.7% | Purity (%) ([1]; 2 Months): 94.5% | Purity (%) ([1]; 3 Months): 94.7% | Purity (%) ([1]; 6 Months): 94.5% | Purity (%) ([1]; Time Zero): 94.5% | Assay (% LC) ([2]; 1 Month): 98.7 % LC | Assay (% LC) ([2]; 2 Months): 97.4 % LC | Assay (% LC) ([2]; 3 Months): 98.8 % LC | Assay (% LC) ([2]; 6 Months): 97.5 % LC | Assay (% LC) ([2]; Time Zero): 98.1 % LC | Product Appearance ([2]; 1 Month): conforms | Total Related Substances (%) ([2]; 1 Month): 5.22% | pH ([2]; 1 Month): 4.8 | Product Appearance ([2]; 2 Months): conforms | Total Related Substances (%) ([2]; 2 Months): 5.52% | pH ([2]; 2 Months): 4.7 | Product Appearance ([2]; 3 Months): conforms | Total Related Substances (%) ([2]; 3 Months): 5.54% | pH ([2]; 3 Months): 4.6 | Product Appearance ([2]; 6 Months): conforms | Total Related Substances (%) ([2]; 6 Months): 5.95% | pH ([2]; 6 Months): 4.6 | Product Appearance ([2]; Time Zero): conforms | Total Related Substances (%) ([2]; Time Zero): 5.52% | pH ([2]; Time Zero): 4.5 | Purity (%) ([2]; 1 Month): 94.8% | Purity (%) ([2]; 2 Months): 94.5% | Purity (%) ([2]; 3 Months): 94.5% | Purity (%) ([2]; 6 Months): 94.0% | Purity (%) ([2]; Time Zero): 94.5%
SMILES: CCCCC(C)(C)[C@H](O)/C=C/[C@H]1[C@H](O)CC(=O)[C@@H]1C/C=C\CCCC(=O)O [16,16-dimethyl PGE2]
number of engrafted HSC donor cells versus control-treated cells [3]: significantly greater number of engrafted HSC donor cells

SMILES: CCCC(=O)Nc1ncnc2c1ncn2[C@@H]1O[C@@H]2COP(=O)(O)O[C@H]2[C@H]1OC(=O)CCC [dibutyryl-cAMP, dibutyryl cyclic adenosine 3′,5′-monophosphate]
survival of CD34+ cells [4]: promote survival | entry of transplanted stem cells into S phase (transplanted stem cells): triggers the transplanted stem cells into entering S phase

SMILES: O[C@@H]1[C@@H]2OP(O)(=S)OC[C@H]2O[C@H]1n1cnc2cc(Cl)c(Cl)cc21 (stereo partly drawn) [BIMPS, sp-5,6-DCl-BIMPS]
survival of CD34+ cells [4]: promote survival

SMILES: CCCCC[C@@H](/C=C/[C@H]1[C@H](OC)CC(=O)[C@@H]1C/C=C\CCCC(=O)O)OC [ONO-AE-248]
effect on core temperature (Tc) ([5]; 20 nmol): increased the Tc

SMILES: CCCC[C@H](C)C[C@H](O)/C=C/[C@H]1[C@H](O)CC(=O)[C@@H]1CC(=O)C1CCC(C(=O)O)CC1 (stereo partly drawn) [ONO-DI-004]
effect on core temperature (Tc) ([5]; in vivo): increase the core temperature (Tc) in a dose-dependent manner

SMILES: CC(C)NCC(O)c1ccc(O)c(O)c1 (stereo not drawn) [isoproterenol]
entry of transplanted stem cells into S phase (transplanted stem cells): triggers the transplanted stem cells into entering S phase

SMILES: CCCCC[C@H](O)/C=C/[C@H]1[C@H](O)CC(=O)[C@@H]1C/C=C\CCCC(=O)O [PGE2, Prostaglandin E2]
mitogenesis of hepatic stellate cells (hepatic stellate cells): inhibits the mitogenesis | protection of DC against apoptosis (dendritic cell (DC)): protects DC | amplification of multipotent progenitors [6]: cause amplification of multipotent progenitors
